# Results: US9096646B2, “CXCR4 receptor compounds” (priority 2008, dated 2015)
# Square brackets hold non-standard residues; d marks the D form. Peptide text beside a SMILES is read from it. * marks the point of attachment. Palmitoyl = CCCCCCCCCCCCCCCC(=O)*
# Biological target: CXCR4 (Homo sapiens, UniProt P61073)
# Test: Calcium flux assay in CCRF-CEM cells (SDF-1α activation of CXCR4; intrinsic agonist activity)
# Type: cell-based
# Parameters: a human T-cell ALL line that endogenously expresses CXCR4; endogenous in cells; host or cells: CCRF-CEM (human T-cell ALL line)
# Settings: SDF-1α activation of CXCR4, Calcium-4 dye, read-out: IC50 (nM), CXCR4 i1 loop compound Calcium Flux Data
# From the text: Calcium Flux Assay is one of the most popular cell-based GPCR functional assays. It most often uses calcium sensing fluorescent dyes such as fura2 AM, fluo-4 and Calcium-4 to measure changes in intracellular calcium concentration. It is used mainly to detect GPCR signaling via Gaq subunit. Activation of these Gq-coupled GPCRs leads to activation of phospholipase C, which subsequently leads to increase in inositol phosphate production. IP3 receptors on endoplasmic reticulum sense the change then release calcium into cytoplasm. Intracellular calcium binding to the fluorescent dyes can be detected by instruments that quantify fluorescent intensities, such as FLIPR Tetra, Flexstation (MDS) and FDSS (Hamamatsu). In additional to assess Gq-couple receptor signaling, calcium flux assay can also be used to study Gs and Gi couple receptors by co-expressing CNG (cyclic nucleotide gated calcium channel) or chimeric G-proteins (Gqi5, Gsi5 for example). Activation of some Gi-coupled receptors can also be detected by calcium flux assay via Gβγmediated phospholipase C activation.
# The calcium flux assay was used to assess SDF-1α activation of CXCR4 in CCRF-CEM cells (human T lymphoblasts from acute lymphoblastic leukemia). CCRF-CEM cells were seeded into 96-well black plates with clear bottom at 200K/well in RPMI 1640 media with 20 mM HEPES containing 0.2% BSA. After dye loading by incubating with Calcium-4 dye at 37° C. for 1 hour, cell plates were read at 37° C. using the Flexstation 3 workstation. The addition of test compounds or reference antagonists was accomplished either by manual pipetting or by liquid handling using the Flexstation. The latter allows the assessment of intrinsic agonist activity of the test compounds by measuring initial changes in fluorescent intensity. After incubation of 24 minutes at 37° C., SDF-1α was added and receptor activation was assessed by measuring changes in fluorescent intensity using the Flexstation.
# Sequence of CXCR4 (P61073 whole entry): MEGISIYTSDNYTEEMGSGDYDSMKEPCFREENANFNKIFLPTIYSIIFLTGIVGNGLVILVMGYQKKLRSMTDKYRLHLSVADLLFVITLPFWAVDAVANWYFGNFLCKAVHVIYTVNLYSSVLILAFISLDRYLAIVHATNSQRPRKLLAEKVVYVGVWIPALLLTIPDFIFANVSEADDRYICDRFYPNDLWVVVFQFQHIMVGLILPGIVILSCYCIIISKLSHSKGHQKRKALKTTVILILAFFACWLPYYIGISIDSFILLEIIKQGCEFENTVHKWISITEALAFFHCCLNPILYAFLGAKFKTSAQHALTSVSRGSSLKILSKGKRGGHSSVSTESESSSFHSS
row,SMILES,IC50 [nM]
1,CCCCCCCCCCCCCCCC(=O)N[C@@H](CCSC)C(=O)NCC(=O)N[C@@H](Cc1ccc(O)cc1)C(=O)N[C@@H](CCC(N)=O)C(=O)N[C@@H](CCCCN)C(=O)N[C@@H](CCCCN)C(=O)N[C@@H](CC(C)C)C(=O)N[C@@H](CCCNC(=N)N)C(=O)N[C@@H](CO)C(=O)N[C@@H](CCSC)C(=O)N[C@H](C(=O)N[C@@H](CC(=O)O)C(=O)N[C@@H](CCCCN)C(=O)N[C@@H](Cc1ccc(O)cc1)C(=O)N[C@@H](CCCNC(=N)N)C(=O)N[C@H](CC(C)C)C(N)=O)[C@@H](C)O [Compound 159] (Palmitoyl-MGYQKKLRSMTDKYR[dL]-NH2),> 10000
2,CCCCCCCCCCCCCCCC(=O)N[C@@H](CCSC)C(=O)NCC(=O)N[C@@H](Cc1ccc(O)cc1)C(=O)N[C@@H](CCC(N)=O)C(=O)N[C@@H](CCCCN)C(=O)N[C@@H](CCCCN)C(=O)N[C@@H](CC(C)C)C(=O)N[C@@H](CCCNC(=N)N)C(=O)N[C@@H](CO)C(=O)N[C@@H](CCSC)C(=O)N[C@H](C(=O)N[C@@H](CC(=O)O)C(=O)N[C@@H](CCCCN)C(=O)N[C@H](Cc1ccc(O)cc1)C(=O)N[C@@H](CCCNC(=N)N)C(=O)N[C@@H](CC(C)C)C(N)=O)[C@@H](C)O [Compound 161] (Palmitoyl-MGYQKKLRSMTDK[dY]RL-NH2),> 10000
3,CCCCCCCCCCCCCCCC(=O)N[C@@H](CCSC)C(=O)NCC(=O)N[C@@H](Cc1ccc(O)cc1)C(=O)N[C@@H](CCC(N)=O)C(=O)N[C@@H](CCCCN)C(=O)N[C@@H](CCCCN)C(=O)N[C@H](CC(C)C)C(=O)N[C@@H](CCCNC(=N)N)C(=O)N[C@@H](CO)C(=O)N[C@@H](CCSC)C(=O)N[C@H](C(=O)N[C@@H](CC(=O)O)C(=O)N[C@@H](CCCCN)C(=O)N[C@@H](Cc1ccc(O)cc1)C(=O)N[C@@H](CCCNC(=N)N)C(=O)N[C@@H](CC(C)C)C(N)=O)[C@@H](C)O [Compound 170] (Palmitoyl-MGYQKK[dL]RSMTDKYRL-NH2),72
4,CCCCCCCCCCCCCCCC(=O)N[C@@H](CCSC)C(=O)NCC(=O)N[C@@H](Cc1ccc(O)cc1)C(=O)N[C@@H](CCC(N)=O)C(=O)N[C@@H](CCCCN)C(=O)N[C@@H](CCCCN)C(=O)N[C@@H](CC(C)C)C(=O)N[C@H](CCCNC(=N)N)C(=O)N[C@@H](CO)C(=O)N[C@@H](CCSC)C(=O)N[C@H](C(=O)N[C@@H](CC(=O)O)C(=O)N[C@@H](CCCCN)C(=O)N[C@@H](Cc1ccc(O)cc1)C(=O)N[C@@H](CCCNC(=N)N)C(=O)N[C@@H](CC(C)C)C(N)=O)[C@@H](C)O [Compound 171] (Palmitoyl-MGYQKKL[dR]SMTDKYRL-NH2),72
